Data published in publication PMC11930985 (Nature Communications, 2025).
“Also recorded” adds a separate entry of the source. Read-outs that look alike come from different tables or passages of the source.

Test system: AML/MDS patients
Details: for Fatal SAE: Adverse event / Fatal SAE: Grade / Fatal SAE: Relationship to Bemcentinib: per patient
Protocol: Safety assessments including standard clinical laboratory safety tests (hematology, biochemistry, coagulation, and urinalysis), physical examinations, vital signs (blood pressure, heart rate, respiration rate and temperature), and ECOG performance status were performed at baseline and throughout the study. Electrocardiograms were obtained at screening, Cycle 1 Day 1–4, 8, and 15, Cycle 2 Day 1, 8 and 15, at Day 1 of each cycle thereafter, (up to and including Cycle 15), and at Final Study Visit. QT prolongation was assessed using the Fridericia correction […] [34]. Severity of QTcF prolongation was defined as follows: Grade 1: maximum prolongation 450–480 ms; Grade 2: maximum prolongation 481-500 ms; Grade 3: ≥501 ms on at least two separate ECGs; Grade 4: ≥501 ms or >60 ms change from baseline, with Torsades de pointes, polymorphic ventricular tachycardia or signs/symptoms of serious arrythmia; Grade 5: Death.
Adverse events (AEs) were monitored starting at study enrolment until 28 days after end of treatment and graded according to the National Cancer Institute Common Terminology Criteria for Adverse Events (NCI-CTCAE) version 4.0. If drug-related toxicities continued beyond the follow-up period, patients were followed until all drug-related toxicities resolved to grade ≤1, stabilized or returned to baseline.

With `Nc1nc(Nc2ccc3c(c2)CC[C@@H](N2CCCC2)CC3)nn1-c1cc2c(nn1)-c1ccccc1CCC2` [Bemcentinib] the “Leukocytosis, patients affected” value (human, in vivo) was 1 (2.8) n (%), the “Melaena, number of events (E)” value (human, in vivo) was 1 and the “Melaena, patients affected” value (human, in vivo) was 1 (2.8) n (%). For the same compound, the “Mental status changes, number of events (E)” value (human, in vivo) was 1, the “Mental status changes, patients affected” value (human, in vivo) was 1 (2.8) n (%) and the “Metabolism and nutrition disorders (System Organ Class), number of events (E)” value (human, in vivo) was 21. The “Metabolism and nutrition disorders (System Organ Class), patients affected” value (human, in vivo) was 14 (38.9) n (%), the “Musculoskeletal and connective tissue disorders (System Organ Class), number of events (E)” value (human, in vivo) was 4 and the “Musculoskeletal and connective tissue disorders (System Organ Class), patients affected” value (human, in vivo) was 2 (5.6) n (%). The “Nausea, number of events (E)” value (human, in vivo) was 3, the “Nausea, patients affected” value (human, in vivo) was 3 (8.3) n (%) and the “Nervous system disorders (System Organ Class), number of events (E)” value (human, in vivo) was 3. For the same compound, the “Nervous system disorders (System Organ Class), patients affected” value (human, in vivo) was 3 (8.3) n (%), the “Neutropenia, number of events (E)” value (human, in vivo) was 3 and the “Neutropenia, patients affected” value (human, in vivo) was 2 (5.6) n (%). The “Number of TEAE, number of events (E)” value (human, in vivo) was 148, the “Number of TEAE, patients affected” value (human, in vivo) was 35 (97.2) n (%) and the “Oesophagitis, number of events (E)” value (human, in vivo) was 1. For the same compound, the “Oesophagitis, patients affected” value (human, in vivo) was 1 (2.8) n (%), the “Osteitis, number of events (E)” value (human, in vivo) was 1 and the “Osteitis, patients affected” value (human, in vivo) was 1 (2.8) n (%). For the same compound, the “Patients with dose interruptions due to adverse events” value (human, in vivo) was 17, the “Patients with dose reductions” value (human, in vivo) was 3 and the “Pharyngitis, number of events (E)” value (human, in vivo) was 1. The “Pharyngitis, patients affected” value (human, in vivo) was 1 (2.8) n (%), the “Pneumonia, number of events (E)” value (human, in vivo) was 8 and the “Pneumonia, patients affected” value (human, in vivo) was 8 (22.2) n (%). For the same compound, the “Psychiatric disorders (System Organ Class), number of events (E)” value (human, in vivo) was 3, the “Psychiatric disorders (System Organ Class), patients affected” value (human, in vivo) was 3 (8.3) n (%) and the “Pulmonary congestion, number of events (E)” value (human, in vivo) was 1. The “Pulmonary congestion, patients affected” value (human, in vivo) was 1 (2.8) n (%), the “Rash erythematous, number of events (E)” value (human, in vivo) was 1 and the “Rash erythematous, patients affected” value (human, in vivo) was 1 (2.8) n (%). For the same compound, the “Renal and urinary disorders (System Organ Class), number of events (E)” value (human, in vivo) was 4, the “Renal and urinary disorders (System Organ Class), patients affected” value (human, in vivo) was 2 (5.6) n (%) and the “Respiratory failure, number of events (E)” value (human, in vivo) was 1. For the same compound, the “Respiratory failure, patients affected” value (human, in vivo) was 1 (2.8) n (%), the “Respiratory, thoracic and mediastinal disorders (System Organ Class), number of events (E)” value (human, in vivo) was 9 and the “Respiratory, thoracic and mediastinal disorders (System Organ Class), patients affected” value (human, in vivo) was 6 (16.7) n (%). The “Sepsis, number of events (E)” value (human, in vivo) was 3, the “Sepsis, patients affected” value (human, in vivo) was 3 (8.3) n (%) and the “Skin and subcutaneous tissue disorders (System Organ Class), number of events (E)” value (human, in vivo) was 1. The “Skin and subcutaneous tissue disorders (System Organ Class), patients affected” value (human, in vivo) was 1 (2.8) n (%), the “Stomatitis, number of events (E)” value (human, in vivo) was 1 and the “Stomatitis, patients affected” value (human, in vivo) was 1 (2.8) n (%). The “Streptococcal bacteraemia, number of events (E)” value (human, in vivo) was 1, the “Streptococcal bacteraemia, patients affected” value (human, in vivo) was 1 (2.8) n (%) and the “Supraventricular tachycardia, number of events (E)” value (human, in vivo) was 1. For the same compound, the “Supraventricular tachycardia, patients affected” value (human, in vivo) was 1 (2.8) n (%), the “Syncope, number of events (E)” value (human, in vivo) was 1 and the “Syncope, patients affected” value (human, in vivo) was 1 (2.8) n (%). For the same compound, the “TEAE leading to Discontinuation” value (human, in vivo) was 4 n (%), the “Thrombocytopenia, number of events (E)” value (human, in vivo) was 7 and the “Thrombocytopenia, patients affected” value (human, in vivo) was 5 (13.9) n (%). The “Toothache, number of events (E)” value (human, in vivo) was 1, the “Toothache, patients affected” value (human, in vivo) was 1 (2.8) n (%) and the “Urethral haemorrhage, number of events (E)” value (human, in vivo) was 1. The “Urethral haemorrhage, patients affected” value (human, in vivo) was 1 (2.8) n (%), the “Urinary incontinence, number of events (E)” value (human, in vivo) was 1 and the “Urinary incontinence, patients affected” value (human, in vivo) was 1 (2.8) n (%). The “Vascular disorders (System Organ Class), number of events (E)” value (human, in vivo) was 3, the “Vascular disorders (System Organ Class), patients affected” value (human, in vivo) was 3 (8.3) n (%) and the “Viral infection, number of events (E)” value (human, in vivo) was 1. The “Viral infection, patients affected” value (human, in vivo) was 1 (2.8) n (%), the “Vomiting, number of events (E)” value (human, in vivo) was 2 and the “Vomiting, patients affected” value (human, in vivo) was 2 (5.6) n (%). The “Oral pain, number of events (E)” value (human, in vivo, po) was 1, the “Oral pain, patients affected” value (human, in vivo, po) was 1 (2.8) n (%) and the “Eye toxicity of grade ≥3” value (in vivo) was “Only a single event”. For the same compound, the Retinal toxicities (in vivo) was “no evidence for retinal toxicities”, the Tolerability (in vivo) was “well-tolerated” and the “Fatal SAE: Adverse event” value (Dose escalation 400 mg/100 mg) was “Neutropenic sepsis”. For the same compound, the “Fatal SAE: Grade” value (Dose escalation 400 mg/100 mg) was 5, the “Fatal SAE: Relationship to Bemcentinib” value (Dose escalation 400 mg/100 mg) was “Unrelated” and the “Fatal SAE: Adverse event” value (Dose escalation 400 mg/200 mg) was “Multi-organ failure; also recorded: Pneumonia fungal; also recorded: Cerebral haemorrhage”. For the same compound, the “Fatal SAE: Grade” value (Dose escalation 400 mg/200 mg) was 5, the “Fatal SAE: Relationship to Bemcentinib” value (Dose escalation 400 mg/200 mg) was “Unrelated; also recorded: Unlikely related” and the “Fatal SAE: Adverse event” value (Dose escalation 600 mg/200 mg) was “Pneumonia; also recorded: Sepsis”. For the same compound, the “Fatal SAE: Grade” value (Dose escalation 600 mg/200 mg) was 5 and the “Fatal SAE: Relationship to Bemcentinib” value (Dose escalation 600 mg/200 mg) was “Unrelated”.
